Reference: paper PMC10761647, “β-carboline derivative Z86 attenuates colorectal cancer cell proliferation and migration by directly targeting PI3K” (Natural Products and Bioprospecting, 2024)

Molecular target: T1, PI3Kα (Homo sapiens, UniProt P42336)
T1 construct: gene PIK3CA
Test: PI3-Kinase Activity ELISA (PIP3 production) with purified PI3Kα; supported by CETSA and DARTS in HCT116 and SW480 cells/lysates
Type: biochemical

T1 sequence (P42336 whole entry): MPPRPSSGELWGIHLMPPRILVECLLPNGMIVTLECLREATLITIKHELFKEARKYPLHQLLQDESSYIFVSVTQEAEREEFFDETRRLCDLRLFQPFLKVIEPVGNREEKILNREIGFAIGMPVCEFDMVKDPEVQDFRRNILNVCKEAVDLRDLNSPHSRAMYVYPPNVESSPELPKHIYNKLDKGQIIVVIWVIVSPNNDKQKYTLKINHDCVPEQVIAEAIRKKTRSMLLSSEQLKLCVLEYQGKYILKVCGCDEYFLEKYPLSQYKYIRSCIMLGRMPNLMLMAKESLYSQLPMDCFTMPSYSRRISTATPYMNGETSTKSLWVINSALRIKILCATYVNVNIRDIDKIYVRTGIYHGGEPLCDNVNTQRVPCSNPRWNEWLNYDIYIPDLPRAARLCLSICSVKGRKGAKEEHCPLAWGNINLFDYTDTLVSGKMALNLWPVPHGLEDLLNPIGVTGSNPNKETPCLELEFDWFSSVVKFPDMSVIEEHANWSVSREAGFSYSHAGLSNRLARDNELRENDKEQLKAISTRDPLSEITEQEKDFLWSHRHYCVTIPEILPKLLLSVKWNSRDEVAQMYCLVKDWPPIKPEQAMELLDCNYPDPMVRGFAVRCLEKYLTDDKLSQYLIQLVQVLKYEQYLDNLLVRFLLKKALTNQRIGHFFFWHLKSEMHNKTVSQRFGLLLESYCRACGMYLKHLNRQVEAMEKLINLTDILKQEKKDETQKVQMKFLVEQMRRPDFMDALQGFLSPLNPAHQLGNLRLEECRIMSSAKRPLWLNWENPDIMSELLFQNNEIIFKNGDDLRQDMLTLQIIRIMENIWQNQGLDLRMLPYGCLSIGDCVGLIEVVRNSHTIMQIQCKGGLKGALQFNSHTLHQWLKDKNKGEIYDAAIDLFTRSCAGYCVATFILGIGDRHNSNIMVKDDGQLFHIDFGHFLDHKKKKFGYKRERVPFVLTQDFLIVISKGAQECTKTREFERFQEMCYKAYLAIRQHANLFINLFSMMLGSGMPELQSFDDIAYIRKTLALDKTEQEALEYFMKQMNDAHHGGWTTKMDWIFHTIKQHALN
T1 sequence (P27986 2-724 partner): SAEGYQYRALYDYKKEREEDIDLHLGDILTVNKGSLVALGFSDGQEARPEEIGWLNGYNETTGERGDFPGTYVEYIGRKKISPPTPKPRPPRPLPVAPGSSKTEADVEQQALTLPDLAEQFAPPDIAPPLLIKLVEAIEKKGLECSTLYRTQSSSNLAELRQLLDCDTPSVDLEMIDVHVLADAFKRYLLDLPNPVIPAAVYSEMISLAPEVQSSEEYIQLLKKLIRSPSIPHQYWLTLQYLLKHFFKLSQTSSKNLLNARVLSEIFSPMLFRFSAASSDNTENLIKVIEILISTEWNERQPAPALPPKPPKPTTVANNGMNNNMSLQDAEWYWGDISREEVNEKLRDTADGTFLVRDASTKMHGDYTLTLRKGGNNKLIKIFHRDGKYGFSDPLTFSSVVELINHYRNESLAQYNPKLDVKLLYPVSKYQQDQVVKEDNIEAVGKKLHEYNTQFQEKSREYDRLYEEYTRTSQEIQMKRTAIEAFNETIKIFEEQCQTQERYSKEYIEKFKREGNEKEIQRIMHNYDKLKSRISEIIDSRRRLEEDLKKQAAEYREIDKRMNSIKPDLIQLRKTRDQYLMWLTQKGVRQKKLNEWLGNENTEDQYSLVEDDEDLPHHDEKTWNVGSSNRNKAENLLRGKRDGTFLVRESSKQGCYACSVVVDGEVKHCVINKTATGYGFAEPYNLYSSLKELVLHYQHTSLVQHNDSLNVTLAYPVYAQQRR

- IC50: 4.28 µM
SMILES: CCn1c2ccccc2c2cc(C(=O)OC(C)C)nc(-c3cccc4ccccc34)c21 [Z86, isopropyl 9-ethyl-1-(naphthalen-1-yl)-9 H-pyrido[3,4-b] indole-3-carboxylate]
